Experimental data taken from ChEMBL document CHEMBL3044672, “N9- and N7-(Chloromethyl Phenymethyl)Chloropurine Derivatives from , '-Dichloroxylenes: Synthesis and Anticancer Activity” (2005).

Experiments:
Assay type in all cases: functional
SK-OV-3 = test: Cytotoxicity against Homo sapiens (human) SKOV3 cells after 48 hr by sulforhodamine B assay; conditions: SK-OV-3, 48 h
UACC-62 = test: Cytotoxicity against Homo sapiens (human) UACC62 cells after 48 hr by sulforhodamine B assay; conditions: UACC-62, 48 h
UACC-257 = test: Cytotoxicity against Homo sapiens (human) UACC257 cells after 48 hr by sulforhodamine B assay; conditions: UACC-257, 48 h
Hs-578T = test: Cytotoxicity against Homo sapiens (human) Hs 578T cells after 48 hr by sulforhodamine B assay
[1] = Cytotoxicity against Homo sapiens (human) NCI-ADR-RES cells after 48 hr by sulforhodamine B assay
MDA-MB-231 = test: Cytotoxicity against Homo sapiens (human) MDA-MB-231 cells after 48 hr by sulforhodamine B assay; conditions: MDA-MB-231, 48 h
TK-10 = test: Cytotoxicity against Homo sapiens (human) TK10 cells after 48 hr by sulforhodamine B assay; conditions: TK-10, 48 h; for CC50: read-out: LC50 (the source's name)
RXF 393 = test: Cytotoxicity against Homo sapiens (human) RXF393 cells after 48 hr by sulforhodamine B assay; conditions: RXF 393, 48 h
SF-268 = test: Cytotoxicity against Homo sapiens (human) SF268 cells after 48 hr by sulforhodamine B assay; conditions: SF-268, 48 h; for CC50: read-out: LC50 (the source's name)
KM12 = test: Cytotoxicity against Homo sapiens (human) KM12 cells after 48 hr by sulforhodamine B assay; conditions: KM12, 48 h; for CC50: read-out: LC50 (the source's name)
HCC 2998 = test: Cytotoxicity against Homo sapiens (human) HCC2998 cells after 48 hr by sulforhodamine B assay; conditions: HCC 2998, 48 h; for CC50: read-out: LC50 (the source's name)
COLO 205 = test: Cytotoxicity against Homo sapiens (human) COLO205 cells after 48 hr by sulforhodamine B assay; conditions: COLO 205, 48 h; for CC50: read-out: LC50 (the source's name)
NCI-H522 = test: Cytotoxicity against Homo sapiens (human) NCI-H522 cells after 48 hr by sulforhodamine B assay; conditions: NCI-H522, 48 h; for CC50: read-out: LC50 (the source's name)
NCI-H23 = test: Cytotoxicity against Homo sapiens (human) NCI-H23 cells after 48 hr by sulforhodamine B assay; conditions: NCI-H23, 48 h; for CC50: read-out: LC50 (the source's name)
HOP-62 = test: Cytotoxicity against Homo sapiens (human) HOP62 cells after 48 hr by sulforhodamine B assay; conditions: HOP-62, 48 h; for CC50: read-out: LC50 (the source's name)
A549 = test: Cytotoxicity against Homo sapiens (human) A549 cells after 48 hr by sulforhodamine B assay; conditions: A549, 48 h; for CC50: read-out: LC50 (the source's name)
RPMI-8226 = test: Cytotoxicity against Homo sapiens (human) RPMI8226 cells after 48 hr by sulforhodamine B assay; conditions: RPMI-8226, 48 h; for CC50: read-out: LC50 (the source's name)
K562 = test: Cytotoxicity against Homo sapiens (human) K562 cells after 48 hr by sulforhodamine B assay; conditions: K562, 48 h; for CC50: read-out: LC50 (the source's name)
MCF7 = test: Cytotoxicity against Homo sapiens (human) MCF7 cells assessed as cell growth at 10^-4 M after 48 hr by Alamar blue assay; conditions: MCF7, 48 h, read-out: Activity
NCI-H460 = test: Cytotoxicity against Homo sapiens (human) NCI-H460 cells assessed as cell growth at 10^-4 M after 48 hr by Alamar blue assay; conditions: NCI-H460, 48 h, read-out: Activity
OVCAR-4 = test: Cytotoxicity against Homo sapiens (human) OVCAR4 cells after 48 hr by sulforhodamine B assay; conditions: OVCAR-4, 48 h
LOX IMVI = test: Cytotoxicity against Homo sapiens (human) LOXIMVI cells after 48 hr by sulforhodamine B assay
SNB-75 = test: Cytotoxicity against Homo sapiens (human) SNB75 cells after 48 hr by sulforhodamine B assay; conditions: SNB-75, 48 h
HCT-15 = test: Cytotoxicity against Homo sapiens (human) HCT15 cells after 48 hr by sulforhodamine B assay; conditions: HCT-15, 48 h
HCT-116 = test: Cytotoxicity against Homo sapiens (human) HCT116 cells after 48 hr by sulforhodamine B assay; conditions: HCT-116, 48 h
MOLT-4 = test: Cytotoxicity against Homo sapiens (human) MOLT4 cells after 48 hr by sulforhodamine B assay; conditions: MOLT-4, 48 h
CCRF-CEM = test: Cytotoxicity against Homo sapiens (human) CCRF-CEM cells after 48 hr by sulforhodamine B assay
[2] = read-out: LC50 (the source's name)

ClCc1ccc(Cn2cnc3ncnc(Cl)c32)cc1
GI50 (SK-OV-3): 11.2 µM
LC50 (SK-OV-3): 47.9 µM
TGI (SK-OV-3): 23.4 µM
GI50 (UACC-62): 2.51 µM
LC50 (concentration causing 50% net cell kill) (UACC-62): 34.7 µM
TGI (UACC-62): 12 µM
GI50 (UACC-257): 1.58 µM
LC50 (concentration killing 50% of cells) (UACC-257): 7.76 µM
TGI (UACC-257): 3.46 µM
GI50 (Hs-578T): 1.73 µM
LC50 (Hs-578T): > 100 µM
TGI (Hs-578T): 4.26 µM
GI50 [1]: 1.81 µM
LC50 (concentration killing 50% of cells) [1]: 15.5 µM
TGI [1]: 4.67 µM
GI50 (MDA-MB-231): 1.77 µM
LC50 (MDA-MB-231): 6.3 µM
TGI (MDA-MB-231): 3.38 µM
GI50 (TK-10): 1.47 µM
TGI (TK-10): 2.95 µM
CC50 (TK-10): 5.75 µM
GI50 (RXF 393): 1.65 µM
TGI (RXF 393): 4.16 µM
CC50 (RXF 393; [2]): 12 µM
GI50 (SF-268): 1.65 µM
TGI (SF-268): 3.38 µM
CC50 (SF-268): 7.07 µM
GI50 (KM12): 1.65 µM
TGI (KM12): 3.38 µM
CC50 (KM12): 7.07 µM
GI50 (HCC 2998): 1.41 µM
TGI (HCC 2998): 2.88 µM
CC50 (HCC 2998): 5.75 µM
GI50 (COLO 205): 1.9 µM
TGI (COLO 205): 3.8 µM
CC50 (COLO 205): 7.41 µM
GI50 (NCI-H522): 4.26 µM
TGI (NCI-H522): > 100 µM
CC50 (NCI-H522): > 100 µM
GI50 (NCI-H23): 15.8 µM
TGI (NCI-H23): 30.9 µM
CC50 (NCI-H23): 58.9 µM
GI50 (HOP-62): 1.77 µM
TGI (HOP-62): 3.16 µM
CC50 (HOP-62): 5.62 µM
GI50 (A549): 1.81 µM
TGI (A549): 4.16 µM
CC50 (A549): 9.33 µM
GI50 (RPMI-8226): 1.28 µM
TGI (RPMI-8226): 2.69 µM
CC50 (RPMI-8226): 5.62 µM
GI50 (K562): 3.01 µM
TGI (K562): > 100 µM
CC50 (K562): > 100 µM
growth at 100 µM (MCF7): 23%
growth at 100 µM (NCI-H460): 0%

Nc1nc(Cl)c2ncn(Cc3cccc(CCl)c3)c2n1
GI50 (SK-OV-3): 24 µM
LC50 (SK-OV-3): > 100 µM
TGI (SK-OV-3): 67.6 µM
GI50 (OVCAR-4): 1.95 µM
LC50 (concentration killing 50% of cells) (OVCAR-4): 9.54 µM
TGI (OVCAR-4): 4.26 µM
GI50 (UACC-62): 2.09 µM
LC50 (concentration causing 50% net cell kill) (UACC-62): 13.5 µM
TGI (UACC-62): 4.78 µM
GI50 (UACC-257): 5.75 µM
LC50 (concentration killing 50% of cells) (UACC-257): 49 µM
TGI (UACC-257): 19.5 µM
GI50 (LOX IMVI): 3.38 µM
LC50 (LOX IMVI): 81.3 µM
TGI (LOX IMVI): 13.2 µM
GI50 (SNB-75): 5.75 µM
TGI (SNB-75): 19.5 µM
CC50 (SNB-75; [2]): 51.3 µM
GI50 (Hs-578T): 11.5 µM
LC50 (Hs-578T): > 100 µM
TGI (Hs-578T): 60.2 µM
GI50 [1]: 4.89 µM
LC50 (concentration killing 50% of cells) [1]: 75.9 µM
TGI [1]: 19.9 µM
GI50 (MDA-MB-231): 12 µM
LC50 (MDA-MB-231): 69.2 µM
TGI (MDA-MB-231): 28.8 µM
GI50 (TK-10): 2.39 µM
TGI (TK-10): 7.08 µM
CC50 (TK-10): 27.5 µM
GI50 (SF-268): 3.02 µM
TGI (SF-268): 10.2 µM
CC50 (SF-268): 67.6 µM
GI50 (KM12): 3.31 µM
TGI (KM12): 13.2 µM
CC50 (KM12): 37.1 µM
GI50 (HCT-15): 2.51 µM
TGI (HCT-15): 6.76 µM
CC50 (HCT-15; [2]): 33.1 µM
GI50 (HCT-116): 1.99 µM
TGI (HCT-116): 3.89 µM
CC50 (HCT-116; [2]): 75.9 µM
GI50 (HCC 2998): 3.02 µM
TGI (HCC 2998): 4.89 µM
CC50 (HCC 2998): 77.6 µM
GI50 (COLO 205): 6.76 µM
TGI (COLO 205): 27.5 µM
CC50 (COLO 205): 97.7 µM
GI50 (NCI-H522): 3.31 µM
TGI (NCI-H522): 13.5 µM
CC50 (NCI-H522): 81.3 µM
GI50 (NCI-H23): 2.04 µM
TGI (NCI-H23): 5.01 µM
CC50 (NCI-H23): 26.9 µM
GI50 (HOP-62): 5.75 µM
TGI (HOP-62): 20.4 µM
CC50 (HOP-62): 58.9 µM
GI50 (A549): 12.3 µM
TGI (A549): 27.5 µM
CC50 (A549): 63.1 µM
GI50 (RPMI-8226): 2.39 µM
TGI (RPMI-8226): 11.8 µM
CC50 (RPMI-8226): > 100 µM
GI50 (MOLT-4): 4.78 µM
TGI (MOLT-4): > 100 µM
CC50 (MOLT-4; [2]): > 100 µM
GI50 (K562): 4.36 µM
TGI (K562): > 100 µM
CC50 (K562): > 100 µM
GI50 (CCRF-CEM): 3.02 µM
TGI (CCRF-CEM): > 100 µM
CC50 (CCRF-CEM; [2]): > 100 µM
growth at 100 µM (MCF7): 0%
growth at 100 µM (NCI-H460): 0%
